Earlier results on one molecule are cited in patent US20070275060A1, “Extended release solid pharmaceutical composition containing carbidopa and levodopa” (OSMOTICA COSTA RICA SOCIEDAD ANONIMA, priority 2005, published 2007).

The conditions of this series: orally administered.

For `N[C@@H](Cc1ccc(O)c(O)c1)C(=O)O` [LD], the “time of peak concentrations” value is 30 to 120 min.
